Test system: HCV replicon, genotype-1a variant with glutamine 30 changed to glutamate in the NS5A protein
Assay: microbe, parasite or virus in culture
Assay type: cell-based, HCV genotype 1a
Settings: HCV replicon genotype 1a Q30E (Q→E) variant; test compound titrated with an NS5A-targeting compound (BMS-790052 fixed at 200 nM); ranking of synergist activity
Method in brief: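 Synergy was assessed by combining several fixed amounts of an NS5A-targeting compound with a titration of the second compound of interest.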

SMILES	Fold-Synergistic 1a (Q30E) [fold]
CC(C)(C)[C@H](NC(=O)C(F)(F)C1(O)CCCCC1)c1nc(-c2ccc(-c3ccc(-c4c[nH]c([C@@H](NC(=O)C(F)(F)C5(O)CCCCC5)C(C)(C)C)n4)cc3)cc2)c[nH]1 [Compound P-159]	>100
COC(=O)N[C@@H](C(=O)N[C@H](c1ncc(-c2ccc(-c3ccc(-c4cnc([C@@H](NC(=O)[C@H](NC(=O)OC)C(C)C)C(C)C)o4)cc3)cc2)o1)C(C)C)C(C)C [Compound N-1]	>10
CC1(C(=O)N[C@H](c2nc(-c3ccc(-c4ccc(-c5c[nH]c([C@@H](NC(=O)C6(C)OCC(F)(F)CO6)C(C)(C)C)n5)cc4)cc3)c[nH]2)C(C)(C)C)OCC(F)(F)CO1 [Compound L-87]	>100
CC(C)[C@H](NC(=O)c1cc(Cl)ccc1F)c1nc(-c2ccc(-c3ccc(-c4c[nH]c([C@@H](NC(=O)c5cc(Cl)ccc5F)C(C)C)n4)cc3F)cc2)c[nH]1 [Compound N-99]	>100
CC(C)(C)[C@H](NC(=O)C1(C2(O)CCC(F)(F)CC2)CC1)c1nc(-c2ccc(-c3ccc(-c4c[nH]c([C@@H](NC(=O)C5(C6(O)CCC(F)(F)CC6)CC5)C(C)(C)C)n4)cc3)cc2)c[nH]1 [Compound P-146]	>100
CC(C)(C)[C@H](NC(=O)[C@@]12CC[C@@](C)(C(=O)O1)C2(C)C)c1nc(-c2ccc(-c3ccc(-c4c[nH]c([C@@H](NC(=O)[C@@]56CC[C@@](C)(C(=O)O5)C6(C)C)C(C)(C)C)n4)cc3)cc2)c[nH]1 [Compound P-170]	>100
CN(C(=O)C(C)(C)C(=O)N[C@H](c1nc(-c2ccc(-c3ccc(-c4c[nH]c([C@@H](NC(=O)C(C)(C)C(=O)N(C)C5CC5)C(C)(C)C)n4)cc3)cc2)c[nH]1)C(C)(C)C)C1CC1 [Compound W-140]	<10
CO[C@@H](C(=O)N[C@H](c1nc(-c2ccc(-c3ccc(-c4c[nH]c([C@@H](NC(=O)[C@H](OC)C(C)C)C(C)(C)C)n4)cc3)cc2)c[nH]1)C(C)(C)C)C(C)C [Compound L-86]	>100
CC(C)(C)[C@H](NC(=O)[C@@H]1CCCCN1CC(F)(F)F)c1nc(-c2ccc(-c3ccc(-c4c[nH]c([C@@H](NC(=O)[C@@H]5CCCCN5CC(F)(F)F)C(C)(C)C)n4)cc3)cc2)c[nH]1 [Compound L-51]	>100
CC(C)CC(=O)N[C@H](c1nc(-c2ccc3cc(-c4ccc(-c5cnc([C@@H](NC(=O)CC(C)C)C(C)C)[nH]5)cc4)ccc3c2)c[nH]1)C(C)C [Compound P-2]	>10
COc1cccc2c(C(=O)N3CCC[C@H]3c3ncc(-c4ccc(-c5ccc(-c6cnc([C@@H]7CCCN7C(=O)c7nccc8c(OC)cccc78)[nH]6)cc5)cc4)[nH]3)nccc12 [Compound S-201]	>100
CC(C)(C)[C@H](NC(=O)CC1CCCO1)c1nc(-c2ccc(-c3ccc(-c4c[nH]c([C@@H](NC(=O)CC5CCCO5)C(C)(C)C)n4)cc3)cc2)c[nH]1 (stereo partly drawn) [Compound L-70]	>100
O=C(NC(c1nc(-c2ccc(-c3ccc(-c4c[nH]c(C(NC(=O)C5CCC(F)(F)CC5)C5(C(F)(F)F)CC5)n4)cc3)cc2)c[nH]1)C1(C(F)(F)F)CC1)C1CCC(F)(F)CC1 (centres unmarked) [Compound N-109B]	>100
CC(C)[C@H](NC(=O)C1CCC(F)(F)CC1)c1nc(-c2ccc3c(c2)Cc2cc(-c4c[nH]c([C@@H](NC(=O)C5CCC(F)(F)CC5)C(C)C)n4)ccc2-3)c[nH]1 [Compound N-70]	>100
CCC(C)C(=O)N1CCC[C@H]1c1ncc(-c2ccc(-c3ccc(-c4cnc([C@@H]5CCCN5C(=O)C(C)CC)[nH]4)cc3)cc2)[nH]1 (some centres unmarked) [Compound S-169]	<10
CC(C)(C)[C@H](NC(=O)C1CCC(F)(F)C1)c1nc(-c2ccc(-c3ccc(-c4c[nH]c([C@@H](NC(=O)C5CCC(F)(F)C5)C(C)(C)C)n4)cc3)cc2)c[nH]1 (some centres unmarked) [Compound N-111A]	>100
COc1ccc2c(C(=O)N3CCC[C@H]3c3ncc(-c4ccc(-c5ccc(-c6cnc([C@@H]7CCCN7C(=O)c7nccc8cc(OC)ccc78)[nH]6)cc5)cc4)[nH]3)nccc2c1 [Compound S-198]	>100
O=C(Cc1cccc2ccccc12)N1CCC[C@H]1c1ncc(-c2ccc(-c3ccc(-c4cnc([C@@H]5CCCN5C(=O)Cc5cccc6ccccc56)[nH]4)cc3)cc2)[nH]1 [Compound S-144]	>10
O=C(c1ccc(-c2ccccc2)o1)N1CCC[C@H]1c1ncc(-c2ccc(-c3ccc(-c4cnc([C@@H]5CCCN5C(=O)c5ccc(-c6ccccc6)o5)[nH]4)cc3)cc2)[nH]1 [Compound S-137]	>10
CC(C)(C)[C@H](NC(=O)[C@@]1(C)C[C@H]2CC(F)(F)C[C@H]2C1)c1nc(-c2ccc(-c3ccc(-c4c[nH]c([C@@H](NC(=O)[C@@]5(C)C[C@H]6CC(F)(F)C[C@H]6C5)C(C)(C)C)n4)cc3)cc2)c[nH]1 [Compound P-152]	>100
CC(C)(C)[C@H](NC(=O)C(F)(F)C1(O)CCC1)c1nc(-c2ccc(-c3ccc(-c4c[nH]c([C@@H](NC(=O)C(F)(F)C5(O)CCC5)C(C)(C)C)n4)cc3)cc2)c[nH]1 [Compound P-165]	>100

SMILES	Fold-Synergistic 1a (Q30E) [fold]
CC(C)[C@H](NC(=O)C1CC2(C1)OCCO2)c1nc(-c2ccc(-c3ccc(-c4c[nH]c([C@@H](NC(=O)C5CC6(C5)OCCO6)C(C)C)n4)cc3)cc2)c[nH]1 (some centres unmarked) [Compound W-176]	>100
CN(C)C(=O)C(C)(C)C(=O)N[C@H](c1nc(-c2ccc(-c3ccc(-c4c[nH]c([C@@H](NC(=O)C(C)(C)C(=O)N(C)C)C(C)(C)C)n4)cc3)cc2)c[nH]1)C(C)(C)C [Compound W-138]	>100
CCCCC(=O)N1CCC[C@H]1c1ncc(-c2ccc(-c3ccc(-c4cnc([C@@H]5CCCN5C(=O)CCCC)[nH]4)cc3)cc2)[nH]1 [Compound S-180]	<10
CO[C@H](C)C(=O)N[C@H](c1nc(-c2ccc(-c3ccc(-c4c[nH]c([C@@H](NC(=O)[C@@H](C)OC)C(C)(C)C)n4)cc3)cc2)c[nH]1)C(C)(C)C [Compound L-80]	>100
CC(C)[C@H](NC(=O)C1CC(=O)C1)c1nc(-c2ccc(-c3ccc(-c4c[nH]c([C@@H](NC(=O)C5CC(=O)C5)C(C)C)n4)cc3)cc2)c[nH]1 [Compound W-172]	>10
COC(=O)N[C@H](C(=O)N[C@@H](C)c1nc(-c2ccc(-c3ccc(-c4c[nH]c([C@H](C)NC(=O)[C@@H](NC(=O)OC)C(C)C)n4)cc3)cc2)c[nH]1)C(C)C [Compound N-38]	<10
COC(=O)c1ccccc1C(=O)N1CCC[C@H]1c1ncc(-c2ccc(-c3ccc(-c4cnc([C@@H]5CCCN5C(=O)c5ccccc5C(=O)OC)[nH]4)cc3)cc2)[nH]1 [Compound S-115]	<10
CC(C)(C)[C@H](NC(=O)C(F)(F)Sc1ccccc1)c1nc(-c2ccc(-c3ccc(-c4c[nH]c([C@@H](NC(=O)C(F)(F)Sc5ccccc5)C(C)(C)C)n4)cc3)cc2)c[nH]1 [Compound P-172]	>100
CC(C)(C)[C@H](NC(=O)C(C)(C)n1ncnn1)c1nc(-c2ccc(-c3ccc(-c4c[nH]c([C@@H](NC(=O)C(C)(C)n5ncnn5)C(C)(C)C)n4)cc3)cc2)c[nH]1 [Compound S-276]	>100
CC1(C)CC(C(=O)N[C@H](c2nc(-c3ccc(-c4ccc(-c5c[nH]c([C@@H](NC(=O)C6CC(C)(C)C6)C(C)(C)C)n5)cc4)cc3)c[nH]2)C(C)(C)C)C1 [Compound L-53]	>100
CC(C)(C)[C@H](NC(=O)C(=O)N1CCCC1)c1nc(-c2ccc(-c3ccc(-c4c[nH]c([C@@H](NC(=O)C(=O)N5CCCC5)C(C)(C)C)n4)cc3)cc2)c[nH]1 [Compound W-21]	>100
CC(C)(C)[C@H](NC(=O)C1(O)CCC1)c1nc(-c2ccc(-c3ccc(-c4c[nH]c([C@@H](NC(=O)C5(O)CCC5)C(C)(C)C)n4)cc3)cc2)c[nH]1 [Compound L-71]	>100
C[C@@H]1CN(C(C)(C)C(=O)N[C@H](c2nc(-c3ccc(-c4ccc(-c5c[nH]c([C@@H](NC(=O)C(C)(C)N6C[C@@H](C)O[C@@H](C)C6)C6(C)CC6)n5)cc4)cc3)c[nH]2)C2(C)CC2)C[C@H](C)O1 [Compound W-162]	>100
CC(C)[C@H](NC(=O)C(C)(C)F)c1nc(-c2ccc3c(c2)CCc2cc(-c4c[nH]c([C@@H](NC(=O)C(C)(C)F)C(C)C)n4)ccc2-3)c[nH]1 [Compound N-75]	>100
Cc1cccc(C(=O)N2CCC[C@H]2c2ncc(-c3ccc(-c4ccc(-c5cnc([C@@H]6CCCN6C(=O)c6cccc(C)n6)[nH]5)cc4)cc3)[nH]2)n1 [Compound S-191]	<10
CC[C@H](NC(=O)[C@H](NC(=O)OC)C(C)C)c1nc(-c2ccc(-c3ccc(-c4c[nH]c([C@H](CC)NC(=O)[C@H](NC(=O)OC)C(C)C)n4)cc3)cc2)c[nH]1 [Compound N-40]	>100
COC(=O)N[C@@H](C(=O)N[C@H](c1nc(-c2ccc3cc(-c4ccc(-c5cnc([C@@H](NC(=O)[C@H](NC(=O)OC)C(C)C)C(C)(C)C)[nH]5)cc4)ccc3c2)c[nH]1)C(C)(C)C)C(C)C [Compound N-8]	>10
CC1(C(=O)N2CCC[C@H]2c2ncc(-c3ccc(-c4ccc(-c5cnc([C@@H]6CCCN6C(=O)C6(C)CC6)[nH]5)cc4)cc3)[nH]2)CC1 [Compound S-160]	<10
CC(C)(C)[C@H](NC(=O)C1(CF)CCCO1)c1nc(-c2ccc(-c3ccc(-c4c[nH]c([C@@H](NC(=O)C5(CF)CCCO5)C(C)(C)C)n4)cc3)cc2)c[nH]1 (some centres unmarked) [Compound P-161]	>100
CC(C)[C@H](NC(=O)c1ccccc1F)c1nc(-c2ccc(-c3ccc(-c4c[nH]c([C@@H](NC(=O)c5ccccc5F)C(C)C)n4)c(F)c3)cc2)c[nH]1 [Compound N-92]	>100

Reference: patent US9326973B2, “Hepatitis C virus inhibitors” (priority 2012, dated 2016)
